Laboratory results taken from patent US20230263863A1, “COMPOSITIONS HAVING NEUROREGENERATIVE APPLICATIONS” (GRIFOLS WORLDWIDE OPERATIONS LIMITED, priority 2020, published 2023).
Counter-ions that a name gives are not always drawn.

Tests used:
SH-SY5Y cells [1] = assay: Cell number / proliferation of SH-SY5Y cells; format: cell-based, human
Procedure: Undifferentiated SH-SY5Y cells were seeded into 96 well clear bottom plates in media containing 0.1% FBS. A serum-free base media was utilized as recommended by the supplier for SH-SY5Y cells (Sigma, Cat #94030304-1VL). Twenty-four hours after seeding cells, a 3× stock solution of ApoTf, final concentrations indicated on the x-axis, in serum free base media was added to the cells. […] Cells were allowed to differentiate for 6 days. Neurite growth was assessed by imaging and image analysis. At the time of analysis, a 10× solution of Tubulin Tracker (Molecular Probes, T34075) and Hoechst 33342 (Molecular Probes #H3570) nuclear stain was prepared.
Briefly, Tubulin Tracker dissolved in DMSO was diluted 1:1 with Pluronic F-127 and further diluted into HBSS to generate a 10× solution. Hoechst 33342 was added to the HBSS-Tubulin Tracker solution at 10 μg/mL to generate a 10× nuclear stain. The 10× staining solution (10 μL) was added directly to treated assay wells and incubated at 37° C. for 30 minutes. […]
After obtaining images, the MetaExpress Neurite Outgrowth analysis module (Molecular Devices) was used to identify cells, cell bodies, and quantify neurites. […] The Outgrowth Fold Change was determined by setting the untreated control cells to a value of 1 with all other treatments shown relative to untreated control.

[2] = system: primary human brain cortex-derived neural progenitor cells; assay: Differentiation of primary human neural progenitor cells to neurons and astrocytes; format: cell-based; conditions: ApoTf 0.8 mg/mL, 72 hours
Procedure: Neural progenitor cells maintained as neurospheres were obtained from Lonza (PT-2599). Cells were thawed from a frozen vial of neurospheres and cultured in Human NeuroCult™ NS-A Complete Proliferation media (Stemcell Technologies) for 2 weeks. Neurospheres were dissociated to single cells and plated in Laminin coated wells of assay plates. The neural progenitor cells were seeded in NeuroCult™ NS-A Basal media containing 1/10th concentration of the recommended proliferation supplements, in the absence or presence of ApoTf (0.8 mg/mL) for 72 hours. At the time of analysis, cells were fixed with paraformaldehyde, stained for β-III-tubulin (R&D Systems, MAB1195) and GFAP (Invitrogen, PA3-16727), and imaged on a Molecular Devices Nano imaging instrument. Image analysis was performed by assessing the relative numbers of cells staining positive for β-III-tubulin or GFAP. Values for the indicated conditions are shown with standard deviations as “% β-III-Tubulin Positive” cells (FIG. 2A) or “% GFAP Positive” cells (FIG. 2B).

SH-SY5Y cells [3] = assay: Neurite outgrowth (Outgrowth Fold Change) in undifferentiated SH-SY5Y cells; format: cell-based, human; conditions: for neurite outgrowth / differentiation over the concentration range: DFO compared with ApoTf; for neurogenesis / differentiation (neurite outgrowth): all proteins 0.2 mg/mL; for neurite outgrowth or differentiation: FIG. 5
Procedure: Undifferentiated SH-SY5Y cells were seeded into 96 well clear bottom plates in media containing 0.1% FBS. A serum-free base media was utilized as recommended by the supplier for SH-SY5Y cells (Sigma, Cat #94030304-1VL). Twenty-four hours after seeding cells, a 3× stock solution of ApoTf, final concentrations indicated on the x-axis, in serum free base media was added to the cells. ApoTf was obtained and purified from pooled human plasma and dosed at a final concentration of 0.2 mg/mL. Cells were allowed to differentiate for 6 days. Neurite growth was assessed by imaging and image analysis. At the time of analysis, a 10× solution of Tubulin Tracker (Molecular Probes, T34075) and Hoechst 33342 (Molecular Probes #H3570) nuclear stain was prepared.
Briefly, Tubulin Tracker dissolved in DMSO was diluted 1:1 with Pluronic F-127 and further diluted into HBSS to generate a 10× solution. Hoechst 33342 was added to the HBSS-Tubulin Tracker solution at 10 μg/mL to generate a 10× nuclear stain. The 10× staining solution (10 μL) was added directly to treated assay wells and incubated at 37° C. for 30 minutes. Following incubation, 110 μL of 0.4% Trypan Blue was added directly to assay wells and imaged on a Molecular Devices Nano imaging instrument. Nine images/well were acquired in the blue (Nuclei) and green (Tubulin) fluorescent channels for each image.
After obtaining images, the MetaExpress Neurite Outgrowth analysis module (Molecular Devices) was used to identify cells, cell bodies, and quantify neurites. The total number of neurite branches were divided by the total number of cells imaged to account for different numbers of cells in each test well. The Outgrowth Fold Change was determined by setting the untreated control cells to a value of 1 with all other treatments shown relative to untreated control.

SH-SY5Y cells [4] = assay: β-III-tubulin staining intensity in SH-SY5Y cells; format: cell-based, human; conditions: FIG. 1D
Procedure: In this experiment, the SH-SY5Y cells were differentiated as described supra. At the time of analysis, cells were fixed with paraformaldehyde, stained for β-III-tubulin (R&D Systems, MAB1195), and imaged on a Molecular Devices Nano imaging instrument. Image analysis was performed by assessing the fluorescent intensity of cells stained with β-III-tubulin. Background from secondary antibody alone was subtracted from all values. Values are shown with standard deviations as “β-III-Tubulin Staining Intensity” for the indicated conditions.

[5] = system: MPTP-induced Parkinson's Disease in mice; assay: Kinematic gait analysis in MPTP-induced Parkinson's Disease mice; format: in vivo, C57BI/6J mice; conditions: ApoTf 350 mg/kg i.p. once a day, days 1-7; analysis on day 7; n=15
Procedure: Animal experiments were performed at Charles River Laboratories (Finland), as specified in the license authorized by the national Animal Experiment Board of Finland and according to the National Institutes of Health (Bethesda, Md., USA) guidelines for the care and use of laboratory animals. Eight to twelve-week-old, C57BI/6J mice were housed at a standard temperature (22±1° C.) and in a light-controlled environment (lights on from 7 am to 8 pm) with ad libitum access to food and water.
Solutions of MPTP were prepared by dissolving MPTP hydrochloride in sterile saline at 2.42 mg/mL; corresponding to 2.0 mg/mL of active compound. To induce Parkinson's Disease, the MPTP was given by intraperitoneal injection twice a day at 20 mg/kg. […]
The captured videos of each mouse were first converted to the software-readable format. […] Gait pattern and movement analysis assessed 100 different parameters, including but not limited to stride time, swing time during a stride, speed, step width, stance and interlimb coordination. The data was analysed by using principal component analysis (PCA). The overall gait analysis was based on the PCA of all parameters for each mouse, with the obtained value showing the overall differences, measured as a “distance”, between control mice and MPTP, or MPTP plus ApoTf mice. […]

[6] = Iron saturation of transferrin samples by ICP-AES; format: physicochemical
Procedure: Protein purity was determined by SDS-PAGE. Iron saturation levels were determined using ICP-AES in accordance with the procedures outlined in Manley et al., J Biol Inorg Chem (2009) 14:61-74, the contents of which are incorporated herein by reference.

HIF-1α = conditions: undifferentiated SH-SY5Y; US2016008437; cited from earlier work
[7] = FIG. 1C, 0.1 mg/mL ApoTf vs untreated control

ApoTf: iron-free form of transferrin protein, purified from pooled human plasma
cell numbers (cell proliferation) (SH-SY5Y cells [1]; FIG. 1B, up to 0.8 mg/mL apo-transferrin): concentration dependent increase in cell numbers | cell proliferation (nuclear staining) (SH-SY5Y cells [1]; [7]): profound effect on promoting cell proliferation | % β-III-tubulin positive cells (neurons) ([2]; FIG. 2A): dramatically increases the percentage of cells differentiated to neurons | % GFAP positive cells (astrocytes) ([2]; FIG. 2B): dramatically increases | neurite outgrowth (SH-SY5Y cells [3]; FIG. 1A, ApoTf up to 0.8 mg/mL, 6 days): induce neurite outgrowth in a dose dependent manner | neurite/tubulin outgrowth (tubulin staining) (SH-SY5Y cells [3]; [7]): promoting induction of neurite/tubulin outgrowth | neurite outgrowth / differentiation over the concentration range (SH-SY5Y cells [3]; FIG. 3A): continues to increase differentiation even up to 9.9 μM | neurogenesis / differentiation (neurite outgrowth) (SH-SY5Y cells [3]; FIG. 3B): did induce neurogenesis | differentiation (neurite outgrowth), factor combined with ApoTf (SH-SY5Y cells [3]; FIGS. 7A-7D, ApoTf 0.1 mg/mL plus neurotrophic factor): synergistic effect with other neurotrophic factors and peptides | β-III-Tubulin Staining Intensity (SH-SY5Y cells [4]): caused an increase in β-III-tubulin protein | movement and gait (Distance from Control, PCA) [5]: significantly ameliorated | Iron Saturation (%) [6]: < 0.3%

ApoTransferrin A: apo-transferrin sample, Grifols, prepared in house
Iron Saturation (%) [6]: 0.27%

HoloTf: iron-saturated form of transferrin, purified from pooled human plasma [reference compound]
neurogenesis / differentiation (neurite outgrowth) (SH-SY5Y cells [3]; FIG. 4): unable to induce differentiation | Iron Saturation (%) [6]: 100%

O=C(O)CNC(=O)c1c(O)c2ccccc2n(Cc2ccccc2)c1=O [IOX2, N-[[1,2-Dihydro-4-hydroxy-2-oxo-1-(phenylmethyl)-3-quinolinyl]carbonyl]-glycine, reference compound]
concentration inducing up-regulation of HIF-1α (HIF-1α): 1 µM | neurite outgrowth or differentiation (SH-SY5Y cells [3]; 4 μM IOX2): no effect was observable | neurite outgrowth or differentiation (SH-SY5Y cells [3]; IOX2-treated cells): no neurite outgrowth or differentiation was observed

ApoTransferrin B: apo-transferrin sample, Grifols, prepared in house
Iron Saturation (%) [6]: 0.59%

ApoTransferrin C: apo-transferrin sample, Grifols, prepared in house
Iron Saturation (%) [6]: 0.24%

C[C@@H](N)[C@H]1CC[C@H](C(=O)Nc2ccncc2)CC1.Cl.Cl [Y-27632, trans-4-[(1R)-1-Aminoethyl]-N-4-pyridinylcyclohexanecarboxamide dihydrochloride, reference compound]
neurogenic effect (neurite outgrowth), alone (SH-SY5Y cells [3]; FIG. 8, Y-27632 50 μM): strongly neurogenic | neurogenic effect (neurite outgrowth), in the presence of ApoTf (SH-SY5Y cells [3]; FIG. 8, Y-27632 50 μM plus ApoTf 0.1 mg/mL): synergistic showing an effect beyond that exhibited by either molecule alone

CC(=O)N(O)CCCCCNC(=O)CCC(=O)N(O)CCCCCNC(=O)CCC(=O)N(O)CCCCCN [DFO, Deferoxamine mesylate, reference compound]
concentration of maximal neurite outgrowth (SH-SY5Y cells [3]; FIG. 3A): 1 to 3 µM | neurite outgrowth / differentiation over the concentration range (SH-SY5Y cells [3]; FIG. 3A): little neurite formation beyond that concentration

recombinant ApoTf: recombinant wild-type human transferrin, SEQ ID NO: 1, expressed in 293-6E cells
neurogenesis / differentiation (neurite outgrowth) (SH-SY5Y cells [3]; FIG. 3B): did induce neurogenesis
